Columns and labels:
ROCK1 [1] = target: T1, ROCK1 (Homo sapiens, UniProt Q13464); assay: anti-V5 co-immunoprecipitation of SHROOM3-ROCK1 from treated WT-Sh3 HEK-293T cells; type: cell-based; design: with SHROOM3
Target sequence in this assay (Q13464 2-1354): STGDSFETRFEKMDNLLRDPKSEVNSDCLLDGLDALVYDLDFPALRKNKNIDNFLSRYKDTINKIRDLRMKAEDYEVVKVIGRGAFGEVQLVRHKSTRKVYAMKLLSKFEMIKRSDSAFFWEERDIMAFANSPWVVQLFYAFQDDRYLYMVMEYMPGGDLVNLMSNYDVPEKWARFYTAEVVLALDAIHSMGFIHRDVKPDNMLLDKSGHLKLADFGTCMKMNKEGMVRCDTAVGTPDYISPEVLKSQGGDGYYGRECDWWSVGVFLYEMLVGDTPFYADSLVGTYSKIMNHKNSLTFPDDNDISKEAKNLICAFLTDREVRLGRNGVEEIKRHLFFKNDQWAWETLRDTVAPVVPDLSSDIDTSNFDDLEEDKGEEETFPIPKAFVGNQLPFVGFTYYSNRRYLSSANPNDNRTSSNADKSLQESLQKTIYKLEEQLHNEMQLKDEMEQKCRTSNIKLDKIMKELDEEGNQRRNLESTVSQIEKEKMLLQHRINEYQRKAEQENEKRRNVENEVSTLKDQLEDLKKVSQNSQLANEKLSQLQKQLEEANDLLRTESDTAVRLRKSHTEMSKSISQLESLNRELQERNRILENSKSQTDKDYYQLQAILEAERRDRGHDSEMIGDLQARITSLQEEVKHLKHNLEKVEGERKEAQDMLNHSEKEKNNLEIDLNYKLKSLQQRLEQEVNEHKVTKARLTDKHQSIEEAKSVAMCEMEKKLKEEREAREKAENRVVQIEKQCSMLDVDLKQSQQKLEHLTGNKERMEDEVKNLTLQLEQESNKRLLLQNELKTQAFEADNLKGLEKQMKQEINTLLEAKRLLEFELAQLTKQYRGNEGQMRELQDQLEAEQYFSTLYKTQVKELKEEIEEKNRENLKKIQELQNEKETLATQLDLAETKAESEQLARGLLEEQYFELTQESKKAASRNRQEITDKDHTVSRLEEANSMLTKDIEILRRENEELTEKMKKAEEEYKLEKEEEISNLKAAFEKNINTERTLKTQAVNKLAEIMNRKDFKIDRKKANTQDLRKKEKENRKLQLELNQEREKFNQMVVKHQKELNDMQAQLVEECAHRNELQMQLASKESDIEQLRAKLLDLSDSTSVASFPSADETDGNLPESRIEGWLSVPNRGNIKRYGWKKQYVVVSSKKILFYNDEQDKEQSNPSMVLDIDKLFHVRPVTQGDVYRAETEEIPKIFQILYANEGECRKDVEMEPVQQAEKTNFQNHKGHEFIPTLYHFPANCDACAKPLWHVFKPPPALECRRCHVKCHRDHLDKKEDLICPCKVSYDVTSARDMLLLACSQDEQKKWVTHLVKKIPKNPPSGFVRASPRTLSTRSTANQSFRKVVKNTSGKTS
Target sequence in this assay (Q8TF72 whole entry partner): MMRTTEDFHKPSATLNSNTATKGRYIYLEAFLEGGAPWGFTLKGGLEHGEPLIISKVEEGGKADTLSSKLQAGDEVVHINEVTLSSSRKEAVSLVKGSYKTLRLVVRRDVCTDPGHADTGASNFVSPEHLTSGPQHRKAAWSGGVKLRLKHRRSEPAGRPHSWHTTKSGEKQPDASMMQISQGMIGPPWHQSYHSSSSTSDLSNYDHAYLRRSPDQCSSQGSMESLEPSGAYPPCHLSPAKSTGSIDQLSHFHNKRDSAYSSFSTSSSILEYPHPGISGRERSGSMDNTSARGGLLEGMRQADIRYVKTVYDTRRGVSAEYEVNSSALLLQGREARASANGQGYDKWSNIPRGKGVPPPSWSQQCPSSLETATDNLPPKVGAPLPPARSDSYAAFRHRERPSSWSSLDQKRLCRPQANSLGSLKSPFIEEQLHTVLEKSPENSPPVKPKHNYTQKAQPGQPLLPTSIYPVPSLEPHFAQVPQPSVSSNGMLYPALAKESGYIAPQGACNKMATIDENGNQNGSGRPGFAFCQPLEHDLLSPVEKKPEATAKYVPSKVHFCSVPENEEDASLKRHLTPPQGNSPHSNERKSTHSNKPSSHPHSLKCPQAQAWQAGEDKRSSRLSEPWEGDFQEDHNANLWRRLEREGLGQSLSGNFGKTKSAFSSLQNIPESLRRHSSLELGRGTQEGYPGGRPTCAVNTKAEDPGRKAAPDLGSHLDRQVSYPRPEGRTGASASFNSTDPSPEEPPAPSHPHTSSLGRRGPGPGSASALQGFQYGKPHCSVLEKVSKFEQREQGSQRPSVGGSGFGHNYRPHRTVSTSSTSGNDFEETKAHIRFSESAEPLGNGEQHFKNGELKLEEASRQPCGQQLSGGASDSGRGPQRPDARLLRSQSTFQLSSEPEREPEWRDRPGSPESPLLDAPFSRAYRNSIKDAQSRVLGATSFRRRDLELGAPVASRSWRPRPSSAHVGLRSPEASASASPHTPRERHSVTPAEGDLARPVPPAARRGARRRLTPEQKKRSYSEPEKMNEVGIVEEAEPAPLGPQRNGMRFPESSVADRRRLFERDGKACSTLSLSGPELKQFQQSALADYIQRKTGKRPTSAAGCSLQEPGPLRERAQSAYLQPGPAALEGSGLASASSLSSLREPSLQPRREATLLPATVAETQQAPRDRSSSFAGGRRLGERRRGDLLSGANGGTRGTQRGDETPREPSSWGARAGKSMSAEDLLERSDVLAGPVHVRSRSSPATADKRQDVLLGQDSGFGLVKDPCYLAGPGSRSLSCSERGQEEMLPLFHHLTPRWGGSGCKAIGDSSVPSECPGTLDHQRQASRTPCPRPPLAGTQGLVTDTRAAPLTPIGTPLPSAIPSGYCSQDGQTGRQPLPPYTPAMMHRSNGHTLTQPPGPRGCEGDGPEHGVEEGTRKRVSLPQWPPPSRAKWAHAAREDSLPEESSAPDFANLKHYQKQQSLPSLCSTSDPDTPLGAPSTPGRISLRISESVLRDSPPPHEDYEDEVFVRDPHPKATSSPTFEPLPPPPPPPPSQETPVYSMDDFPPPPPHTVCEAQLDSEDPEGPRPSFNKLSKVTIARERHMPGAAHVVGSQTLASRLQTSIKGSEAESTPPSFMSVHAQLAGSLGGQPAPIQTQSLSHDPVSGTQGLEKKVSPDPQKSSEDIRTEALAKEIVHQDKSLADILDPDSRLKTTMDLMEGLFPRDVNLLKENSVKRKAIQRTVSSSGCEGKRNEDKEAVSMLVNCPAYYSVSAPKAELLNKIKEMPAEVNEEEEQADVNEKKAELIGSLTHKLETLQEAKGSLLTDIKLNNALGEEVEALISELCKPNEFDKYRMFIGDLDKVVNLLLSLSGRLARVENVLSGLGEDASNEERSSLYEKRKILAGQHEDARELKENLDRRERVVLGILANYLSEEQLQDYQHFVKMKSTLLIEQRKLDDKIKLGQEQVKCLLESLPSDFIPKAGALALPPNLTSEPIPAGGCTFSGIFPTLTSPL

ROCK1 [2] = target: T1, ROCK1
Target sequence in this assay (Q13464 2-1354): as the sequence (Q13464 2-1354) above

Row | SMILES | anti-V5 co-immunoprecipitation of SHROOM3-ROCK1 from treated WT-Sh3 HEK-293T cel (ROCK1 [1]) | kinase hot spot assay in the absence of SHROOM3 (Fig. S7j) (ROCK1 [2])
1 | F[B-](F)(F)c1ccc(C2NC(=S)NC3=C2CCc2ccccc23)cc1 (centres unmarked) [D4G, potassium trifluoro (4-(2-thioxo-1,2,3,4,5,6-hexahydrobenzo [h]quinazolin-4-yl)phenyl) borate] | the interaction of SHROOM3 with ROCK1 was diminished with D4G-treatment vs DMSO-treatment in WT-Sh3 overexpressing HEK-293T | –
2 | O=c1[nH]ccc2c(S(=O)(=O)N3CCCNCC3)cccc12 [HF, Hydroxy Fasudil] | – | HF inhibited Rock1, Rock2 (as expected), but showed significant off-target kinase inhibition (except Fyn)

— article PMC12852734, “Design of precision therapeutics for a CKD risk allele by targeting Shroom3-Rock interaction” (Nature Communications, 2025)
